The target of test [1] is T1, His-GST-TVMV-hRIPK1(1-324) (Homo sapiens, UniProt Q13546).
T1 construct: The coding region of human RIPK1(1-324) flanked by NdeI site at 5′ end; made in house; host or cells: Spodoptera frugiperda (Sf9) insect cells, baculovirus
T1 sequence (Q13546 1-324): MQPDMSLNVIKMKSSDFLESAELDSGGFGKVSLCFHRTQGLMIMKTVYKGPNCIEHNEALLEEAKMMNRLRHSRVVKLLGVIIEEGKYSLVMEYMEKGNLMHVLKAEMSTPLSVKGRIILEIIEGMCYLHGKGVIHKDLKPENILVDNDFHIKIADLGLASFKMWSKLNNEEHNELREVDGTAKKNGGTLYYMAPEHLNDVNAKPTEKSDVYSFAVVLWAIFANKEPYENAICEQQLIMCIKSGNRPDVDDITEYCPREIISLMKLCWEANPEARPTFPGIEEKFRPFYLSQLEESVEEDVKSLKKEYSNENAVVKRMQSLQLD
Kind of test: RIPK1 HTRF Binding Assay.

For test [2], the system named is MLKL phosphorylation in HT29-L23 human colorectal adenocarcinoma cells. Kind of test: MLKL Phosphorylation High-Content Assay. To be noted: Homo sapiens. The test is classed as cell-based. The method, boiled down:
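Cells incubated six hours at 37° C., then phospho-MLKL (S358) immunostained overnight at 4° C. and imaged by high-content microscopy. Phosphorylation quantified as mean circ-ring average intensity ratio; IC50 and Ymax from 4-parameter logistic fits.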

Setting [3] is: x marks IC50 class 20-200 nM, read-out: RIPK1 HTRF binding 20-200 nM.
Setting [4] is: x marks IC50 class >200 nM, read-out: pMLKL cell activity >200 nM.
Setting [5] is: x marks IC50 class <20 nM, read-out: RIPK1 HTRF binding <20 nM.
Where [6] appears, read: x marks IC50 class <20 nM, read-out: pMLKL cell activity <20 nM.
[7] abbreviates: x marks IC50 class 20-200 nM, read-out: pMLKL cell activity 20-200 nM.

SMILES strings stand for the structures. Read-outs that look alike come from different tables or passages of the source. A value given as a limit tells only on which side of the number the result lay.

For 20 molecules, IC50 results are on record in patent publication US10913738B2 (BRISTOL-MYERS SQUIBB COMPANY, priority 2017, dated 2021).

`COc1nc(C)c(-c2ccn3nc(N)nc3c2)cc1C(=O)NCc1cccc(F)c1CN1CCCC1` [Example 326, 5-(2-Amino-[1,2,4]triazolo[1,5-a]pyridin-7-yl)-N-(3-fluoro-2-(pyrrolidin-1-ylmethyl)benzyl)-2-methoxy-6-methylnicotinamide]: the IC50 in test [1] (setting [3]) was 20 to 200 nM; in test [2] (setting [4]), above 200 nM.
In the case of `COc1ncc(-c2ccn3nc(N)nc3c2)cc1C(=O)NCc1cc(F)cc(F)c1OC(C)C` [Example 22, 5-{2-Amino-[1,2,4]triazolo[1,5-a]pyridin-7-yl}-N-{[3,5-difluoro-2-(propan-2-yloxy)phenyl]methyl}-2-methoxypyridine-3-carboxamide], the IC50 in test [1] (setting [5]) and in test [2] (setting [6]) was below 20 nM throughout.
For `Nc1nc2cc(-c3cnc(N)c(C(=O)NCc4ccccc4OCC4CCC4)c3)ccn2n1` [Example 49, 2-Amino-5-{2-amino-[1,2,4]triazolo[1,5-a]pyridin-7-yl}-N-{[2-(cyclobutylmethoxy)phenyl]methyl}pyridine-3-carboxamide], the IC50 in test [1] (setting [5]) is below 20 nM; in test [2] (setting [7]), 20 to 200 nM.
Take `[2H]C([2H])([2H])[C@H](NC(=O)c1cc(-c2ccn3nc(N)nc3c2)cnc1C)c1cc(OC(F)(F)F)ccc1F` [Example 300, (S)-5-(2-amino-[1,2,4]triazolo[1,5-a]pyridin-7-yl)-N-(1-(2-fluoro-5-(trifluoromethoxy)phenyl)ethyl-2,2,2-H3)-2-methylnicotinamide]: the IC50 in test [1] (setting [5]) and in test [2] (setting [6]) was below 20 nM throughout.
Consider `COc1nc(C)c(-c2ccn3nc(N)nc3c2)cc1C(=O)NCc1cccc(OCC(F)(F)F)c1` [Example 334, 5-(2-amino-[1,2,4]triazolo[1,5-a]pyridin-7-yl)-2-methoxy-6-methyl-N-(3-(2,2,2-trifluoroethoxy)benzyl)nicotinamide], for which the figures for the IC50 in test [1] (setting [5]) and in test [2] (setting [7]) were below 20 nM and 20 to 200 nM, respectively.
For `Cc1ncc(-c2ccn3nc(N)nc3c2)cc1C(=O)NCc1c(F)cc(F)cc1OCC1CCCC1` [Example 228], the IC50 was below 20 nM in test [1] (setting [5]) and 20 to 200 nM in test [2] (setting [7]).
The like results for `CC(C)Oc1c(F)cc(F)cc1CNC(=O)c1cc(-c2ccn3nc(N)nc3c2)cnc1Cl` [Example 163, 5-{2-amino-[1,2,4]triazolo[1,5-a]pyridin-7-yl}-2-chloro-N-{[3,5-difluoro-2-(propan-2-yloxy)phenyl]methyl}pyridine-3-carboxamide] were, in that order, below 20 nM and 20 to 200 nM.
The like results for `CNc1cn2nc(-c3cnc(OC)c(C(=O)N[C@@H](C)c4cc(OC(F)(F)F)ccc4F)c3)ccc2n1` [Example 374, (S)—N-(1-(2-fluoro-5-(trifluoromethoxy)phenyl)ethyl)-2-methoxy-5-(2-(methylamino)imidazo[1,2-b]pyridazin-6-yl)nicotinamide] were, in that order, below 20 nM and 20 to 200 nM.
`COc1ncc(-c2ccn3nc(N)nc3c2)cc1C(=O)Nc1cnn(Cc2ccccc2)c1` [Example 84, 5-{2-Amino-[1,2,4]triazolo[1,5-a]pyridin-7-yl}-N-(1-benzyl-1H-pyrazol-4-yl)-2-methoxypyridine-3-carboxamide]: the IC50 in test [1] (setting [3]) and in test [2] (setting [7]) was 20 to 200 nM each time.
Turning to `Cc1ncc(-c2ccn3nc(N)nc3c2)cc1C(=O)NC(C)c1cc(C(F)(F)F)ccc1F` (single isomer, unassigned) [Example 99-1, 5-{2-amino-[1,2,4]triazolo[1,5-a]pyridin-7-yl}-N-{1-[2-fluoro-5-(trifluoromethyl)phenyl]ethyl}-2-methylpyridine-3-carboxamide], the IC50 in test [1] (setting [3]) and in test [2] (setting [7]) was 20 to 200 nM in each case.
Turning to `COc1ncc(-c2ccn3nc(N)nc3c2)cc1C(=O)N1CCCC(Cc2ccc(Cl)cc2)C1` (stereo not shown) [Example 117, 7-(5-{3-[(4-chlorophenyl)methyl]piperidine-1-carbonyl}-6-methoxypyridin-3-yl)-[1,2,4]triazolo[1,5-a]pyridin-2-amine], the IC50 was 20 to 200 nM in test [1] (setting [3]) and above 200 nM in test [2] (setting [4]).
As to `COc1nc(C)c(-c2ccn3nc(N)nc3c2)cc1C(=O)NCc1ccccc1OCC1CC1` [Example 221, 5-{2-amino-[1,2,4]triazolo[1,5-a]pyridin-7-yl}-N-{[2-(cyclopropylmethoxy)phenyl]methyl}-2-methoxy-6-methylpyridine-3-carboxamide], the IC50 in test [1] (setting [5]) and in test [2] (setting [6]) was below 20 nM each time.
In the case of `COc1ncc(-c2ccn3nc(N)nc3c2)cc1C(=O)NCc1ccccc1OCC1CCC1` [Example 149, 5-{2-amino-[1,2,4]triazolo[1,5-a]pyridin-7-yl}-N-{[2-(cyclobutylmethoxy)phenyl]methyl}-2-methoxypyridine-3-carboxamide], the IC50 in test [1] (setting [5]) and in test [2] (setting [6]) was below 20 nM throughout.
`COc1ncc(-c2ccn3nc(N)nc3c2)cc1C(=O)NCc1ccccc1Sc1ccccc1CO` [Example 151, 5-{2-amino-[1,2,4]triazolo[1,5-a]pyridin-7-yl}-N-[(2-{[2-(hydroxymethyl)phenyl]sulfanyl}phenyl)methyl]-2-methoxypyridine-3-carboxamide]: the IC50 in test [1] (setting [5]) and in test [2] (setting [6]) was below 20 nM in each case.
Regarding `CCOc1ncc(-c2ccn3nc(N)nc3c2)cc1C(=O)NCc1ccccc1SC(C)C` [Example 266, 5-{2-amino-[1,2,4]triazolo[1,5-a]pyridin-7-yl}-2-ethoxy-N-{[2-(propan-2-ylsulfanyl)phenyl]methyl}pyridine-3-carboxamide], the figures for the IC50 in test [1] (setting [5]) and in test [2] (setting [7]) were below 20 nM and 20 to 200 nM, respectively.
The like results for `CNc1ncc(-c2ccn3nc(N)nc3c2)cc1C(=O)NCCC(C)c1ccccc1` (stereo not shown) [Example 70, 5-{2-Amino-[1,2,4]triazolo[1,5-a]pyridin-7-yl}-2-(methylamino)-N-(3-phenylbutyl)pyridine-3-carboxamide] were, in that order, below 20 nM and 20 to 200 nM.
The like results for `COc1ncc(-c2ccn3nc(N)nc3c2)cc1C(=O)NCc1ccccc1OC1CCCCC1` [Example 44, 5-{2-Amino-[1,2,4]triazolo[1,5-a]pyridin-7-yl}-N-{[2-(cyclohexyloxy)phenyl]methyl}-2-methoxypyridine-3-carboxamide] were, in that order, below 20 nM and 20 to 200 nM.
For `COc1nc(C)c(-c2ccn3nc(N)nc3c2)cc1C(=O)NCc1c(F)cccc1OCC(F)(F)F` [Example 328, 5-(2-amino-[1,2,4]triazolo[1,5-a]pyridin-7-yl)-N-(2-fluoro-6-(2,2,2-trifluoroethoxy)benzyl)-2-methoxy-6-methylnicotinamide], the IC50 in test [1] (setting [5]) and in test [2] (setting [6]) was below 20 nM throughout.
For the molecule `COc1ncc(-c2ccn3nc(N)nc3c2)cc1NC(=O)Cc1cc(OC(F)(F)F)ccc1F` [Example 414, N-(5-(2-amino-[1,2,4]triazolo[1,5-a]pyridin-7-yl)-2-methoxypyridin-3-yl)-2-(2-fluoro-5-(trifluoromethoxy)phenyl)acetamide], the IC50 in test [1] (setting [5]) is below 20 nM; in test [2] (setting [7]), 20 to 200 nM.
Regarding `COc1nc(C)c(-c2ccn3nc(N)nc3c2)cc1C(=O)NCc1cc(F)ccc1OCC1CCCC1` [Example 206, 5-{2-amino-[1,2,4]triazolo[1,5-a]pyridin-7-yl}-N-{[2-(cyclopentylmethoxy)-5-fluorophenyl]methyl}-2-methoxy-6-methylpyridine-3-carboxamide], the IC50 was below 20 nM in test [1] (setting [5]) and 20 to 200 nM in test [2] (setting [7]).
